Converted amounts (≈) assume the structure as drawn.
What was measured:
[1] = test system: Galleria mellonella (waxworm) larvae; conditions: in vivo
F. tularensis LVS = assay type: cell-based, Francisella tularensis holarctica Live Vaccine Strain; conditions: for MIC: pH 7.1
[2] = test system: Francisella tularensis tularensis Schu4; conditions: cited from earlier work
Francisella philomiragia = assay type: cell-based
Francisella novicida [3] = conditions: cited from earlier work
F. novicida = assay type: cell-based, Francisella novicida; conditions: for MIC: pH 7.1
Francisella novicida [4] = conditions: cited from earlier work; remark: listed apart in the source
LVS = conditions: standard conditions; cited from earlier work
NIH B38 = conditions: cited from earlier work
[5] = test system: Francisella tularensis holarctica Live Vaccine Strain; conditions: cited from earlier work

For Polymyxin B, the “Toxicity, survival of waxworms” value [1] was “killed the waxworms”, the “This study Polymyxin B” value (F. tularensis LVS) was 256 and the MIC (F. tularensis LVS) was 256 µg/mL. For the same compound, the “Kirby Bauer Polymyxin B” value [2] was 10 mm, the “This study Polymyxin B” value (Francisella philomiragia) was 1024 and the “Kirby Bauer Polymyxin B” value (Francisella novicida [3]) was 19 mm. For the same compound, the “This study Polymyxin B” value (F. novicida) was 256, the MIC (F. novicida) was 256 µg/mL and the MIC (Francisella novicida [4]) was 38 µg/mL.

For `[H]/N=C(/N)N[C@H]1[C@H](O)[C@@H](O)[C@H](O[C@@H]2O[C@@H](C)[C@](O)(C=O)[C@H]2O[C@@H]2O[C@@H](CO)[C@H](O)[C@@H](O)[C@@H]2NC)[C@@H](N/C(N)=N\[H])[C@@H]1O` [Streptomycin, D-Streptamine, O-2-deoxy-2-(methylamino)-α-L-glucopyranosyl-(1->2)-O-5-deoxy-3-C-formyl-α-L-lyxofuranosyl-(1->4)-N1,N3-bis(aminoiminomethyl)-], the MIC (LVS) is listed as 0.38 µg/mL (≈ 0.653 µM) and the MIC (NIH B38) is listed as 0.25 µg/mL (≈ 0.43 µM).

For Colistin, the “Toxicity, survival of waxworms” value [1] was “killed the waxworms”, the “This study Colistin” value (F. tularensis LVS) was greater than 1024 and the MIC (F. tularensis LVS) was greater than 1024 µg/mL. For the same compound, the “This study Colistin” value (Francisella philomiragia) was greater than 1024, the “Kirby Bauer Colistin” value [5] was 0 mm and the “This study Colistin” value (F. novicida) was roughly 1024. For the same compound, the MIC (F. novicida) was 1024 µg/mL.

Source: patent US20230193192A1 (priority 2021, published 2023)
